The source of these data is US20240025922A1, “TETRAHYDROPYRIDO[3,4-d]PYRIMIDINES AS HPK1 INHIBITORS” (Merck Patent GmbH, priority 2022, published 2024).

By IC50 is commonly meant the concentration needed to halve the response being measured.

Assay [1] deals with full-length human HPK1 (MAP4K1) (Homo sapiens (Human), UniProt Q92918). Kind of assay: HPK1 Kinase Assay (Biochemical Assay), ADP-Glo. The following applies: GST-HPK1 3.2 nM, 10 μM ATP, MBP substrate, read-out: HPK1 enzymatic IC50. The method, boiled down: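 ADP-Glo luminescence after a 120-min kinase reaction gave percent inhibition and IC50. The enzyme was Sf21-expressed N-terminal GST full-length human HPK1 at 3.2 nM in HEPES pH 7.5 buffer with MgCl2, DTT, Brij-35 and BSA.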
full-length human HPK1 (MAP4K1), sequence (Q92918 whole entry): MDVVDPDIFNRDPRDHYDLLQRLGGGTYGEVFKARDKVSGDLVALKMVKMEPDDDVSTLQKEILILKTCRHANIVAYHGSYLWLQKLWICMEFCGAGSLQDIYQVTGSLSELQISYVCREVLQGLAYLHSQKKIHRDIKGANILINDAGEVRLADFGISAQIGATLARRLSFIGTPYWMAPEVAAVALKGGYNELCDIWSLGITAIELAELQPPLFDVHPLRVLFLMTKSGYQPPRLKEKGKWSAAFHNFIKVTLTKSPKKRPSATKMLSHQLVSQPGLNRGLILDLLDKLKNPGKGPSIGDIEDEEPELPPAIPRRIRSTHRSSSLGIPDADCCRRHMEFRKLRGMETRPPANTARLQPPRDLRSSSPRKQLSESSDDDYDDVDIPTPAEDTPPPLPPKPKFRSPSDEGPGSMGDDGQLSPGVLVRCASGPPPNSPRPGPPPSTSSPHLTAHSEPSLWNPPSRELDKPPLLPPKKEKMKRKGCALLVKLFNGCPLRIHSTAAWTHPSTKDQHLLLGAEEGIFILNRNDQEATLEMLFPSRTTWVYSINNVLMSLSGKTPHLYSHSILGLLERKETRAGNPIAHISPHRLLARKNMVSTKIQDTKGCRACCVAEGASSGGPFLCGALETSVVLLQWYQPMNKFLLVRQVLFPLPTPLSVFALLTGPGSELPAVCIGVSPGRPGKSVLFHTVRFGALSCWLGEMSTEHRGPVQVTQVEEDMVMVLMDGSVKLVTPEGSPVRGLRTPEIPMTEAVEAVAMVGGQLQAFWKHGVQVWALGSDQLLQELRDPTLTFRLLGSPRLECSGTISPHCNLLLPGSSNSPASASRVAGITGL
Background: ADP-Glo turns the ADP formed in a reaction into a luminescent signal.

Assay [2] deals with HPK1 (SLP76 phosphorylation at Ser376 in Jurkat and EL-4 cells) (Homo sapiens, UniProt Q92918). Format: cell-based. The method, boiled down:
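Phospho-SLP76 (Ser376) in lysates measured by AlphaLISA for human Jurkat and by 19 h HTRF for mouse EL-4, giving % inhibition and IC50. Compounds applied 60 min before αCD3/αCD28 bead stimulation at 37 °C, lasting 15 min (Jurkat) or 30 min (EL-4).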

[3] abbreviates: αCD3/αCD28 Dynabeads stimulated cells, pSLP76 (Ser376) detection; read-out: HPK1 pSLP76 IC50.
Setting [4] is: read-out: HPK1 pSLP76 IC50; αCD3/αCD28 Dynabeads stimulated cells, pSLP76 (Ser376) detection.

SMILES strings stand for the structures. Where two headings read alike, the source gives them in different places.

HPK1 (SLP76 phosphorylation at Ser376 in Jurkat and EL-4 cells), sequence (Q92918 whole entry, looked up): as the sequence (Q92918 whole entry) above

For `Cc1c(N2CCc3cnc(Nc4ccc(CN5CCOCC5)cc4)nc3C2)cnc2c1NCCO2` [Example 99, 7-(8-methyl-2,3-dihydro-1H-pyrido[2,3-b][1,4]oxazin-7-yl)-N-(4-(morpholinomethyl)phenyl)-5,6,7,8-tetrahydropyrido[3,4-d]pyrimidin-2-amine], the figures for the IC50 in assay [1] and in assay [2] (setting [3]) were below 100 nM and 500 to 1000 nM, respectively.

For the compound `Cc1c(N2CCc3cnc(Nc4ccc5c(c4)C(C)(C)OC5)nc3C2)cnc2c1NCCO2` [Example 93, N-(3,3-dimethyl-1,3-dihydroisobenzofuran-5-yl)-7-(8-methyl-2,3-dihydro-1H-pyrido[2,3-b][1,4]oxazin-7-yl)-5,6,7,8-tetrahydropyrido[3,4-d]pyrimidin-2-amine], the concentration for half-maximal inhibition (IC50) was below 100 nM in assay [1] and below 500 nM in assay [2] (setting [4]).

For the compound `Cc1c(N2CCc3cnc(Nc4ccc(CS(=O)(=O)N(C)C)cc4)cc3C2)cnc2c1NCCO2` [Example 150, N,N-dimethyl-1-{4-[(6-{8-methyl-1H,2H,3H-pyrido[2,3-b][1,4]oxazin-7-yl}-5,6,7,8-tetrahydro-2,6-naphthyridin-3-yl)amino]phenyl}methanesulfonamide], the results for the IC50 in assay [1] and in assay [2] (setting [3]) were below 100 nM and below 500 nM, respectively.

`Cc1c(N2CCc3cnc(Nc4ccc5c(c4)CN(CC(C)(C)O)C5)nc3C2)cnc2c1NCCO2` [Example 30, 2-methyl-1-{5-[(7-{8-methyl-1H,2H,3H-pyrido[2,3-b][1,4]oxazin-7-yl}-5H,6H,7H,8H-pyrido[3,4-d]pyrimidin-2-yl)amino]-2,3-dihydro-1H-isoindol-2-yl}propan-2-ol]: the concentration for half-maximal inhibition (IC50) was below 100 nM in assay [1] and below 500 nM in assay [2] (setting [3]).

Regarding `Cc1c(N2CCc3cnc(Nc4cnc5c(c4)CN(CC(F)F)CC5)nc3C2)cnc2c1NCCO2` [Example 105, N-(6-(2,2-difluoroethyl)-5,6,7,8-tetrahydro-1,6-naphthyridin-3-yl)-7-(8-methyl-2,3-dihydro-1H-pyrido[2,3-b][1,4]oxazin-7-yl)-5,6,7,8-tetrahydropyrido[3,4-d]pyrimidin-2-amine], the IC50 was below 100 nM in assay [1] and 500 to 1000 nM in assay [2] (setting [3]).

Take `Cc1c(N2CCc3cnc(Nc4cnc5c(c4)CNCC5)nc3C2)cnc2c1NCCO2` [Example 108, 7-(8-methyl-2,3-dihydro-1H-pyrido[2,3-b][1,4]oxazin-7-yl)-N-(5,6,7,8-tetrahydro-1,6-naphthyridin-3-yl)-5,6,7,8-tetrahydropyrido[3,4-d]pyrimidin-2-amine]: the IC50 in assay [1] is below 100 nM; in assay [2] (setting [3]), 500 to 1000 nM.

In the case of `Cc1c(N2CCc3cnc(Nc4ccc(N5CCC(OC(F)(F)F)CC5)cc4)nc3C2)cnc2c1NCCO2` [Example 103, 7-(8-methyl-2,3-dihydro-1H-pyrido[2,3-b][1,4]oxazin-7-yl)-N-(4-(4-(trifluoromethoxy)piperidin-1-yl)phenyl)-5,6,7,8-tetrahydropyrido[3,4-d]pyrimidin-2-amine], the IC50 in assay [1] was below 100 nM; in assay [2] (setting [4]), above 1000 nM.

On to `Cc1cc(Nc2ncc3c(n2)CN(c2cnc4c(c2C)NCCO4)CC3)ccc1C(=O)N1CC(N(C)C)C1` [Example 38, N,N-dimethyl-1-{2-methyl-4-[(7-{8-methyl-1H,2H,3H-pyrido[2,3-b][1,4]oxazin-7-yl}-5H,6H,7H,8H-pyrido[3,4-d]pyrimidin-2yl)amino]benzoyl}azetidin-3-amin], for which the values for the IC50 in assay [1] and in assay [2] (setting [3]) were below 100 nM and above 1000 nM, respectively.

As to `Cc1c(N2CCc3cnc(Nc4ccc(C5CCN(C)CC5)c(CO)c4)nc3C2)cnc2c1NCCO2` [Example 107, (5-((7-(8-methyl-2,3-dihydro-1H-pyrido[2,3-b][1,4]oxazin-7-yl)-5,6,7,8-tetrahydropyrido[3,4-d]pyrimidin-2-yl)amino)-2-(1-methylpiperidin-4-yl)phenyl)methanol], the IC50 was below 100 nM in assay [1] and 500 to 1000 nM in assay [2] (setting [3]).

Take `Cc1cc(Nc2cc3c(cn2)CCN(c2cnc4c(c2Cl)NCCO4)C3)ccc1NC(=O)CN1CCOCC1` [Example 122, N-(4-((6-(8-chloro-2,3-dihydro-1H-pyrido[2,3-b][1,4]oxazin-7-yl)-5,6,7,8-tetrahydro-2,6-naphthyridin-3-yl)amino)-2-methylphenyl)-2-morpholinoacetamide]: the IC50 in assay [1] is below 100 nM; in assay [2] (setting [3]) it was 500 to 1000 nM.

Regarding `Cc1c(N2CCc3cnc(Nc4ccc5c(c4)CN(C)C5)nc3C2)cnc2c1NCCO2` [Example 104, 7-(8-methyl-2,3-dihydro-1H-pyrido[2,3-b][1,4]oxazin-7-yl)-N-(2-methylisoindolin-5-yl)-5,6,7,8-tetrahydropyrido[3,4-d]pyrimidin-2-amine], the half-inhibitory concentration (IC50) in assay [1] is below 100 nM; in assay [2] (setting [3]) it was below 500 nM.

With `Cc1c(N2CCc3cnc(Nc4cnc(CS(C)(=O)=O)c(Cl)c4)nc3C2)cnc2c1NCCO2` [Example 5, 5-chloro-6-(methanesulfonylmethyl)-N-(7-{8-methyl-1H,2H,3H-pyrido[2,3-b][1,4]oxazin-7-yl}-5H,6H,7H,8H-pyrido[3,4-d]pyrimidin-2-yl)pyridin-3-amine], the figures for the IC50 in assay [1] and in assay [2] (setting [3]) were below 100 nM and above 1000 nM, respectively.

In the case of `COC1CCN(c2ccc(Nc3ncc4c(n3)CN(c3cnc5c(c3C)NCCO5)CC4)cc2)CC1` [Example 113, N-(4-(4-methoxypiperidin-1-yl)phenyl)-7-(8-methyl-2,3-dihydro-1H-pyrido[2,3-b][1,4]oxazin-7-yl)-5,6,7,8-tetrahydropyrido[3,4-d]pyrimidin-2-amine], the values for the IC50 in assay [1] and in assay [2] (setting [3]) were below 100 nM and 500 to 1000 nM, respectively.

For the compound `Cc1c(N2CCc3cnc(Nc4ccc(C5(O)CCN(C)CC5)cc4)cc3C2)cnc2c1NCCO2` [Example 52, 1-methyl-4-(4-((6-(8-methyl-2,3-dihydro-1H-pyrido[2,3-b][1,4]oxazin-7-yl)-5,6,7,8-tetrahydro-2,6-naphthyridin-3-yl)amino)phenyl)piperidin-4-ol], the IC50 in assay [1] was below 100 nM; in assay [2] (setting [3]), 500 to 1000 nM.

Take `Cc1cc(Nc2ncc3c(n2)CN(c2cnc4c(c2C)NCCO4)CC3)ccc1NCCN1CCOCC1` [Example 23, 2-methyl-N4-(7-{8-methyl-1H,2H,3H-pyrido[2,3-b][1,4]oxazin-7-yl}-5H,6H,7H,8H-pyrido[3,4-d]pyrimidin-2-yl)-N1-[2-(morpholin-4-yl)ethyl]benzene-1,4-diamine]: the IC50 in assay [1] is below 100 nM; in assay [2] (setting [3]) it was 500 to 1000 nM.

For `Cc1c(N2CCc3cnc(Nc4ccc(CS(=O)(=O)CC5(C)COC5)cc4)nc3C2)cnc2c1NCCO2` [Example 41, 7-{8-methyl-1H,2H,3H-pyrido[2,3-b][1,4]oxazin-7-yl}-N-(4-{[(3-methyloxetan-3-yl)methanesulfonyl]methyl}phenyl)-5H,6H,7H,8H-pyrido[3,4-d]pyrimidin-2-amine], the IC50 in assay [1] is below 100 nM; in assay [2] (setting [3]), below 500 nM.

For the compound `Cc1c(N2CCc3cnc(Nc4ccc(CS(C)(=O)=O)c(F)c4)nc3C2)cnc2c1NCCO2` [Example 190, N-[3-fluoro-4-(methanesulfonylmethyl)phenyl]-7-{8-methyl-1H,2H,3H-pyrido[2,3-b][1,4]oxazin-7-yl}-5H,6H,7H,8H-pyrido[3,4-d]pyrimidin-2-amine], the half-inhibitory concentration (IC50) in assay [1] is below 100 nM; in assay [2] (setting [3]), below 500 nM.

For `Cc1c(N2CCc3cnc(Nc4ccc(CS(C)(=O)=O)cc4)nc3C2)cnc2c(F)c[nH]c12` [Example 138, 7-{3-fluoro-7-methyl-1H-pyrrolo[3,2-b]pyridin-6-yl}-N-[4-(methanesulfonylmethyl)phenyl]-5H,6H,7H,8H-pyrido[3,4-d]pyrimidin-2-amine], the values for the concentration for half-maximal inhibition (IC50) in assay [1] and in assay [2] (setting [3]) were below 100 nM and below 500 nM, respectively.
